In one data set the target is FGFR3 (Homo sapiens, UniProt P22607). In words: Biochemical kinase profiling (33PanQinase radiometric assay). The conditions noted are these: read-out: FGFR3 IC50; ATP at apparent Km.
A further data set addresses PDGFRA (Homo sapiens, UniProt P16234). The data set is described as above. The following applies: read-out: PDGFRA IC50; ATP at apparent Km.
Another data set deals with NMuMG cells. In words: High-content microscopy EMT screen in TGFβ-treated NMuMG cells (FA, SF, FN, cell count). The class given is cell-based, murine. The conditions noted are these: for Emax (maximal effect on cell count): compared to reference 10 μM SB-431542 = 100%; for Emax: read-out: Emax (maximal effect on cell count).
The target of the next data set is T1, VEGFR1 (Homo sapiens, UniProt P17948).
T1 construct: purchased ProQinase (Freiburg, Germany)
In words: Biochemical kinase profiling (33PanQinase radiometric assay). The conditions noted are these: ATP at apparent Km.

In a further data set the target is PDGFRB (Homo sapiens, UniProt P09619). The data set is described as above. The following applies: read-out: PDGFRB IC50; ATP at apparent Km.
In another data set the target is EGFR (Homo sapiens, UniProt P00533). The data set is described as above. The following applies: read-out: EGFR IC50; ATP at apparent Km.
Another data set has as its target FGFR2 (Homo sapiens, UniProt P21802). The data set is described as above. The following applies: read-out: FGFR2 IC50; ATP at apparent Km.
Another data set concerns the target FGFR1 (Homo sapiens, UniProt P11362). Described as above. The following applies: read-out: FGFR1 IC50; ATP at apparent Km.
The target in the next data set is SRC (Homo sapiens, UniProt P12931). The description is as above. The following applies: read-out: SRC IC50; ATP at apparent Km.
The target in the next data set is T2, VEGFR2 (Homo sapiens, UniProt P35968).
T2 construct: purchased ProQinase (Freiburg, Germany)
The description is as above. The conditions noted are these: ATP at apparent Km.

The target of another data set is TGFBR2 (Homo sapiens, UniProt P37173). The description is as above.
Another data set has as its target FGFR4 (Homo sapiens, UniProt P22455). Described as above. The following applies: read-out: FGFR4 IC50; ATP at apparent Km.
The target in another data set is T3, c-KIT (Homo sapiens, UniProt P10721).
T3 construct: purchased ProQinase (Freiburg, Germany)
The data set is described as above. The conditions noted are these: ATP at apparent Km.

A further data set addresses T4, VEGFR3 (Homo sapiens, UniProt P35916).
T4 construct: purchased ProQinase (Freiburg, Germany)
Described as above. The following applies: ATP at apparent Km.

A further data set has as its system Py2T cells. In words: High-content microscopy EMT assay in TGFβ-treated Py2T breast cancer cells. The data set is classed as cell-based, murine. The following applies: Py2T.
The next data set addresses T5, TGFBR1 (Homo sapiens, UniProt P36897).
T5 sequence (P36897 34-503): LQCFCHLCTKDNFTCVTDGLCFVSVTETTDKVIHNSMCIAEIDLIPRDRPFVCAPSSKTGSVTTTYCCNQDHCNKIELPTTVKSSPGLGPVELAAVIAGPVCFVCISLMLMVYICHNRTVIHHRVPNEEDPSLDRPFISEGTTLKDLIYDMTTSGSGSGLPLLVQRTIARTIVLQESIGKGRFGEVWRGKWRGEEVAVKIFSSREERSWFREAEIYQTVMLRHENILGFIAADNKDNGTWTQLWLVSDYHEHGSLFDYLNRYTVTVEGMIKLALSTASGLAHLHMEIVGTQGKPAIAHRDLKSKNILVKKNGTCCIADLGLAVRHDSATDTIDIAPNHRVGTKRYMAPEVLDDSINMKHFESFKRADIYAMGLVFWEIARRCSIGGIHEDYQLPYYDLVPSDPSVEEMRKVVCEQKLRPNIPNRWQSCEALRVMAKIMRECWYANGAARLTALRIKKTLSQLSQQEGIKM
Put plainly: Biochemical kinase profiling (33PanQinase radiometric assay).

For data set [1] the following is noted: mice, single dose of 50 mg/kg; cited from earlier work.
The conditions of data set [2]: cited from earlier work.
For data set [3] the following is noted: cited from earlier work. The source holds these as a separate data set.
Where [4] appears, read: NMuMG, TGFβ1 2 ng/ml plus compound, 4 days, parameter decreased by 50%, read-out: FA IC50 (focal adhesion formation).
[5] abbreviates: NMuMG, TGFβ1 2 ng/ml plus compound, 4 days, parameter decreased by 50%, read-out: FN IC50 (fibronectin patch formation).
[6] abbreviates: NMuMG, TGFβ1 2 ng/ml plus compound, 4 days, parameter decreased by 50%, read-out: SF IC50 (stress fibers).
The mark [7] stands for this setting: NMuMG, cell count decreased by 50% compared to DMSO control, read-out: Tox IC50.
[8] abbreviates: NMuMG, cell count increased by 50% compared to 100% with 10 μM SB-431542, read-out: CCI IC50 (cell count increase).
Setting [9] is: NMuMG, mean of IC50 values obtained for FA, SF, FN, read-out: EMT (FA/SF/FN) combined IC50.
The mark [10] stands for this setting: read-out: TGFBR2 IC50, ATP at apparent Km.
Where [11] appears, read: Mus musculus, 96 h, NMuMG, TGFβ1 2 ng/ml plus compound, 4 days, parameter decreased by 50%, read-out: FA IC50 (focal adhesion formation).
The mark [12] stands for this setting: Mus musculus, 96 h, NMuMG, TGFβ1 2 ng/ml plus compound, 4 days, parameter decreased by 50%, read-out: FN IC50 (fibronectin patch formation).
[13] abbreviates: Mus musculus, 96 h, NMuMG, TGFβ1 2 ng/ml plus compound, 4 days, parameter decreased by 50%, read-out: SF IC50 (stress fibers).
[14] abbreviates: Mus musculus, NMuMG, cell count decreased by 50% compared to DMSO control, read-out: Tox IC50.
Setting [15] is: Mus musculus, NMuMG, mean of IC50 values obtained for FA, SF, FN, read-out: EMT (FA/SF/FN) combined IC50.
[16] abbreviates: Mus musculus, read-out: CCI IC50 (cell count increase).

Like-named read-outs stand apart in the source and are kept apart here.

The term Emax denotes the maximal effect, on the per cent scale that the assay sets. One may read the Cmax as the highest concentration seen after dosing.

TGFBR2, sequence (P37173 23-567): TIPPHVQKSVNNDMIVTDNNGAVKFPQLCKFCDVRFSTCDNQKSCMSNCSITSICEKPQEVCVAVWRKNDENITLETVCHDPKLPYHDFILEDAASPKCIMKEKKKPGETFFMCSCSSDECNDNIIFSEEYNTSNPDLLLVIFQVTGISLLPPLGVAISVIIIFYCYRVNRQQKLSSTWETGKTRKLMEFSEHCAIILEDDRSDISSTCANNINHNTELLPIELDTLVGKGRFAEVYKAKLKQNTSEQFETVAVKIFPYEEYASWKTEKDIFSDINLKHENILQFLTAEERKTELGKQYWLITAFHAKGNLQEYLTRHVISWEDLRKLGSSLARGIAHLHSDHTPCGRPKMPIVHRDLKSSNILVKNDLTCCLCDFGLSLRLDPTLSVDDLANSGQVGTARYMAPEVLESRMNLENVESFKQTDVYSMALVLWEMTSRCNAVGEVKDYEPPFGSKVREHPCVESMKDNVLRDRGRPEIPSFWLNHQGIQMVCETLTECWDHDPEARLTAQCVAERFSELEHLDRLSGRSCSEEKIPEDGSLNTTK
T4 sequence (P35916 25-1363): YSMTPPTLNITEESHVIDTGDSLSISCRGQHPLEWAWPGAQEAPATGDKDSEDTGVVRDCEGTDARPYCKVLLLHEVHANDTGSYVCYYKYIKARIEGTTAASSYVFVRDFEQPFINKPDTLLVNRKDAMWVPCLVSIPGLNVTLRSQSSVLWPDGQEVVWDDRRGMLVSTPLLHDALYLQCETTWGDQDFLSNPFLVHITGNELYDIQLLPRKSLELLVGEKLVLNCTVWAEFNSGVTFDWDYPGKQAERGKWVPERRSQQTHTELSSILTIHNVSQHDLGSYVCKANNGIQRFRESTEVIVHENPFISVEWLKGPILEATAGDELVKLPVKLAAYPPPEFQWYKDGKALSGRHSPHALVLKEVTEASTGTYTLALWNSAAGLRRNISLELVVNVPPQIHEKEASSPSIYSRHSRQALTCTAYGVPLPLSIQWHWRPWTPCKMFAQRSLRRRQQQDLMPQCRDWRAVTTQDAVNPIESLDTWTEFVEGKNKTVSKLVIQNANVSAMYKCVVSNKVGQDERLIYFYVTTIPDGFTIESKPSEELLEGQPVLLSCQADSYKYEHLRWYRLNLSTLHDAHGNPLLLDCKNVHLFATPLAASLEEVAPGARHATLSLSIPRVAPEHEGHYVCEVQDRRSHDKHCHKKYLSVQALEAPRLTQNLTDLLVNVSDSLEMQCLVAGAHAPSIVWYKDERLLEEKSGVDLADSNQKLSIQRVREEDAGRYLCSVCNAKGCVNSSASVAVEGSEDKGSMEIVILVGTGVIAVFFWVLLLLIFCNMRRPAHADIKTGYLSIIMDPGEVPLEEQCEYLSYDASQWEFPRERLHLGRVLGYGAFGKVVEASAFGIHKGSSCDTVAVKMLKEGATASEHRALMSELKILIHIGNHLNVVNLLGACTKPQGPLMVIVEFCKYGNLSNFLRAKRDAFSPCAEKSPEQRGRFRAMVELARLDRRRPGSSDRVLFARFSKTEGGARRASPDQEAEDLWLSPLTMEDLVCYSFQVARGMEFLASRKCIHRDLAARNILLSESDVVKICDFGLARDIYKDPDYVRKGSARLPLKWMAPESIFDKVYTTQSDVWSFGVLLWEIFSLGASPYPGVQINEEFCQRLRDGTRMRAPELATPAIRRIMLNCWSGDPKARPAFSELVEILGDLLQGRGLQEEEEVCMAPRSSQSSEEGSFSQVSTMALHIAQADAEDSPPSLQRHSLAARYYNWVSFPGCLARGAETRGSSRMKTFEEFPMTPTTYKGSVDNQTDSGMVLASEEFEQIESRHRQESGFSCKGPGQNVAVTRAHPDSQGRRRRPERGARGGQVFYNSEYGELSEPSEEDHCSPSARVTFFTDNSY
FGFR3, sequence (P22607 23-806): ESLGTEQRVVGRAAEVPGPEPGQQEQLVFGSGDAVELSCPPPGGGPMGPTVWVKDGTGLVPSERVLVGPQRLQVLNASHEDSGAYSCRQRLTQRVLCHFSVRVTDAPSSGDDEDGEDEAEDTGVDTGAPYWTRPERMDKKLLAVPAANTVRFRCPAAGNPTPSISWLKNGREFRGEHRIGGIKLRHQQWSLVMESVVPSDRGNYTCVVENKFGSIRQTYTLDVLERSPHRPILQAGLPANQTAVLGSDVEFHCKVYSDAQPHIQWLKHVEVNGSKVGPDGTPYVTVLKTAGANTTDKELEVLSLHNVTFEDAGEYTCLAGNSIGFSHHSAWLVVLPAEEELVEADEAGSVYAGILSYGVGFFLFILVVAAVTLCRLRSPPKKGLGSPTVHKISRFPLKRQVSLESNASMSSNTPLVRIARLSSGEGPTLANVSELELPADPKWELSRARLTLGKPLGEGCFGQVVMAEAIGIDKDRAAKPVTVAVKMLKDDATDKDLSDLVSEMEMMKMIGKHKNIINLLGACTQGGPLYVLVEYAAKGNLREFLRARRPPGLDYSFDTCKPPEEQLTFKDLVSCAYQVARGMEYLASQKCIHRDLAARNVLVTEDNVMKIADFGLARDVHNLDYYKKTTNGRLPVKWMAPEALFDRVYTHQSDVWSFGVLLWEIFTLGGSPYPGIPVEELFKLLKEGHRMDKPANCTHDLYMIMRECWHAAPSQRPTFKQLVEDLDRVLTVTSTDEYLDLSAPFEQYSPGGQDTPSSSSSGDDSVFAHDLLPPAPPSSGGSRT
SRC, sequence (P12931 whole entry): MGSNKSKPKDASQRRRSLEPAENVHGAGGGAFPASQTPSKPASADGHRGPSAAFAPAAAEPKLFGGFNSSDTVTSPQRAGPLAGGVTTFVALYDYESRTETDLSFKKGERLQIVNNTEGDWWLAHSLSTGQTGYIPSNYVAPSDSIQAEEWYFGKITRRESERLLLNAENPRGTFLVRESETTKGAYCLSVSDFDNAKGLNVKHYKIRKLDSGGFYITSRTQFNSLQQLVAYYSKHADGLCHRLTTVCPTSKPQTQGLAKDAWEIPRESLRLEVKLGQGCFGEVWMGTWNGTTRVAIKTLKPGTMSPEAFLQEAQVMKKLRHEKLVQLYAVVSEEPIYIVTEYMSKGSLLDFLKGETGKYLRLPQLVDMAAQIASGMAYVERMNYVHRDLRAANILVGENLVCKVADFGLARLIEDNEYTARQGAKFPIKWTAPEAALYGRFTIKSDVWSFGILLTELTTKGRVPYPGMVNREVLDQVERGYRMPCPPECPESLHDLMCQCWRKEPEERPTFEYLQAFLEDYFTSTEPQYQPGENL
PDGFRB, sequence (P09619 33-1106): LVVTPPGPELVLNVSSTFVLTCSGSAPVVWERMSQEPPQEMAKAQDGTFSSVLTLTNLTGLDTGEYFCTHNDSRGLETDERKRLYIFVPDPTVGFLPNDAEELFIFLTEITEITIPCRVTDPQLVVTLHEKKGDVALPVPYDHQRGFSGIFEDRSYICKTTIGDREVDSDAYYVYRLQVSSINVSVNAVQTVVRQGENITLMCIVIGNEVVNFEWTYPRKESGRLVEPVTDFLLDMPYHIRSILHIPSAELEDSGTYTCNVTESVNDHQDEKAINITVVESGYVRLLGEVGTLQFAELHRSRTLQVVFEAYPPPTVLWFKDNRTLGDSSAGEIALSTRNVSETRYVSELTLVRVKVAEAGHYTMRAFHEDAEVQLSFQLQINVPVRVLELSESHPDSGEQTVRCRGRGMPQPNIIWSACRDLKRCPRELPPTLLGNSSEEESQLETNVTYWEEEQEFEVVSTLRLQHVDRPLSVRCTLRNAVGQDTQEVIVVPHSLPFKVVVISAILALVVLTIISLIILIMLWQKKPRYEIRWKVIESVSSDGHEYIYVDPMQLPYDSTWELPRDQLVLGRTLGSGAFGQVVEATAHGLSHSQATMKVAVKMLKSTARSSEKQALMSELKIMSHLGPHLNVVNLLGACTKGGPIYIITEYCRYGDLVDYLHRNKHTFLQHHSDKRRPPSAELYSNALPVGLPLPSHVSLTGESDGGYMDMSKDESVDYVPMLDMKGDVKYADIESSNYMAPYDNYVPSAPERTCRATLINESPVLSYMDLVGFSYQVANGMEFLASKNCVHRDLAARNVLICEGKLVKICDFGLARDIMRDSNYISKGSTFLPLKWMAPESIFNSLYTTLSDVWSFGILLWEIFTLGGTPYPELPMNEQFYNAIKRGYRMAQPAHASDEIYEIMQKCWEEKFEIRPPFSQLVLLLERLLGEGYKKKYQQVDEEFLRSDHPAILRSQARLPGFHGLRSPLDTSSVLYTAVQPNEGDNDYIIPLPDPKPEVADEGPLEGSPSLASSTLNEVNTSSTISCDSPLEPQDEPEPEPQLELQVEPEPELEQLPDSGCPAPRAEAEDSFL
FGFR2, sequence (P21802 22-821): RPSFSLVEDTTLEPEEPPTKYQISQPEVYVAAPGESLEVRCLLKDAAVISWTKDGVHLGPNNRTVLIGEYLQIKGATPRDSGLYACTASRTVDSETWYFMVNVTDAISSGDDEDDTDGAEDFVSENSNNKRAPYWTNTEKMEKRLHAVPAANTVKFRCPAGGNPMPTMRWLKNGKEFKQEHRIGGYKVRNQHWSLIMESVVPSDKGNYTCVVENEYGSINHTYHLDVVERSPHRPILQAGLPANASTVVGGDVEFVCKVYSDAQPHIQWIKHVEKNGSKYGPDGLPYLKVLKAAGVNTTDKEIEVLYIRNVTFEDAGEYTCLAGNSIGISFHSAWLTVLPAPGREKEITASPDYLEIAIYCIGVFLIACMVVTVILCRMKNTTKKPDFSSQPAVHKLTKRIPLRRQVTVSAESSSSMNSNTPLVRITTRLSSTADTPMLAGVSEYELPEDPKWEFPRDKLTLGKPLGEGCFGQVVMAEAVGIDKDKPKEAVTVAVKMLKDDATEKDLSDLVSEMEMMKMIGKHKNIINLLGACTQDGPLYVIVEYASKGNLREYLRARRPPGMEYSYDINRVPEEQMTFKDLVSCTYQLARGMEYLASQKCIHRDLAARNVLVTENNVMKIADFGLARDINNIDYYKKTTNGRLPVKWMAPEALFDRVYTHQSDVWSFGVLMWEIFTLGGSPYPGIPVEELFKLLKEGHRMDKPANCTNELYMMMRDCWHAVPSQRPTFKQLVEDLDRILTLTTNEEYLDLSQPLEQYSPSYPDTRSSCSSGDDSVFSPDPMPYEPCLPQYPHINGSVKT

On to `Cc1cccc(-c2[nH]c(C(C)(C)C)nc2-c2ccc3nccnc3c2)n1` [SB-525334], for which the IC50 was more than 10 µM on FGFR3; more than 10 µM on PDGFRA; 0.276 µM in the data set on NMuMG cells (setting [4]); 0.261 µM with NMuMG cells (setting [5]); 0.243 µM in the data set with NMuMG cells (setting [6]); more than 3 µM in the data set with NMuMG cells (setting [7]). Moreover, the IC50 in the data set with NMuMG cells (setting [8]) is 0.38 µM; in the data set with NMuMG cells (setting [9]), 0.26 µM; on VEGFR1, less than 0.0003 µM; on PDGFRB it was more than 10 µM; at EGFR it was more than 10 µM; at FGFR2 it was more than 10 µM. Besides, the IC50 on FGFR1 is more than 10 µM; at SRC, 5.62 µM; on VEGFR2, 3.52 µM; on TGFBR2 (setting [10]), more than 10 µM; at FGFR4, more than 10 µM; on c-KIT it was more than 10 µM. Further, on VEGFR3, the IC50 was more than 10 µM. The “Emax (maximal effect on cell count)” value in the data set with NMuMG cells (NMuMG) was 100%.

With `COC(=O)c1ccc2c(c1)NC(=O)/C2=C(\Nc1ccc(N(C)C(=O)CN2CCN(C)CC2)cc1)c1ccccc1` [Nintedanib], the IC50 with Py2T cells (Mus musculus, cell count decreased by 50% compared to DMSO control, read-out: Tox IC50) turned out to be 0.502 µM; in the data set with NMuMG cells (setting [11]), 2.63 µM; in the data set with NMuMG cells (setting [12]), 1.18 µM; with NMuMG cells (setting [13]) it was 5.06 µM; with NMuMG cells (setting [14]), 23 µM; with NMuMG cells (setting [15]), 2.96 µM. The IC50 in the data set with NMuMG cells (setting [16]) was 1.11 µM; on TGFBR1, 0.505 µM; against TGFBR2 it was more than 10 µM. In the data set with Py2T cells (TGFβ plus compound, 4 days), the “FA IC50 (focal adhesions)” value is listed as “n.m”. For the same compound, the “FN IC50 (fibronectin patches)” value in the data set on Py2T cells (TGFβ plus compound, 4 days) is “n.m”. For the same compound, in the data set with Py2T cells (TGFβ plus compound, 4 days), the “SF IC50 (stress fibers)” value is “n.m”. Moreover, in the data set with Py2T cells (compared to reference 10 μM SB-431542 = 100%), the “Emax (maximal effect on cell count)” value was “n.m”. The Emax in the data set with NMuMG cells (Mus musculus) was 26.2%. For the same compound, the Cmax in data set [1] is approximately 1000 nM.

For `Cc1ccc(Nc2nccc(N(C)c3ccc4c(C)n(C)nc4c3)n2)cc1S(N)(=O)=O` [Pazopanib], in [2], the plasma protein binding entry is given as “above 99.9%”. The “steady state blood levels required to be active in patients” value in data set [3] is “at least 40 μM”. Further, the IC50 in the data set with NMuMG cells (setting [11]) turned out to be 8.03 µM; in the data set on NMuMG cells (setting [12]), 3.95 µM; with NMuMG cells (setting [13]), 7.3 µM; with NMuMG cells (Mus musculus, combined FA/SF/FN, read-out: IC50 for blocking EMT in NMuMG cells), 6.4 µM; in the data set with NMuMG cells (setting [14]), 15.7 µM; with NMuMG cells (setting [15]) it was 6.43 µM. The IC50 in the data set with NMuMG cells (setting [16]) stood at 1.08 µM. Further, the Emax in the data set on NMuMG cells (Mus musculus) stood at 17.6%.

Consider `Cc1cccc(-c2[nH]ncc2-c2ccc3ncccc3n2)n1` [RepSox], for which the IC50 at FGFR3 was more than 10 µM; on PDGFRA it was more than 10 µM; in the data set on NMuMG cells (setting [4]), 0.047 µM; in the data set on NMuMG cells (setting [5]), 0.044 µM; with NMuMG cells (setting [6]), 0.055 µM; with NMuMG cells (setting [7]), more than 3 µM. The IC50 with NMuMG cells (setting [8]) was 0.088 µM; in the data set on NMuMG cells (setting [9]), 0.0487 µM; at VEGFR1, 1.08 µM; at PDGFRB, 4.37 µM; on EGFR, more than 10 µM; on FGFR2, 4.76 µM. The IC50 is more than 10 µM at FGFR1; 6.11 µM at SRC; 3.07 µM at TGFBR2 (setting [10]); more than 10 µM at FGFR4; 5.24 µM at c-KIT; 1.64 µM at VEGFR3. In addition, in the data set with NMuMG cells (NMuMG), the “Emax (maximal effect on cell count)” value was determined as 100%.

The record behind these values is PMC5041959, “A high-content EMT screen identifies multiple receptor tyrosine kinase inhibitors with activity on TGFβ receptor” (Oncotarget, 2016).
